Test results taken from patent publication US20060099568A1, “Signals and molecular species involved in senescence” (priority 2002, published 2006).

How the values were obtained:
HDF [1] = test: viable cell counting (Trypan blue) with adenylyl cyclase inhibitor and/or LPA; type: cell-based, human; conditions: senescent cell culture; LPA plus adenylyl cyclase inhibitor (SQ22536 300 μM)
Description: O and Y denote old and young cell, respectively.
Young or old HDF (passage 8-11) were treated with LPA (30 μM), dbcAMP (cAMP analog, 1 mM, Sigma), adenylyl cyclase inhibitor, SQ22536 (300 μM, Calbiochem) and their combinations for 30-60 min at 37° C. The cells treated were stained with Trypan blue (GiBco/BRL) for 10 min at 37° C. and only cells without blue color were then counted under hemacytometer.

HDF [2] = test: flow cytometry (FACS, propidium iodide) of cell cycle progression; type: cell-based, human; conditions: senescent cell
Description: FIG. 21 represents the results of FACS analysis evaluating the effect of LPA on cell cycle progression in senescent cells in connection with the affection of cAMP control. Con denotes control group and ACI is adenylyl cyclase inhibitor.
In addition, the treated cells were analyzed using flow cytometry. The treated cells were harvested and treated with […] of 0.1% trypsin for 30 sec, after which centrifugation was performed at 4° C. for 10 min at 1000 rpm. Then, the cell concentration was adjusted to 1-3×10^6 cells/ml in sample buffer. The sample buffer was prepared in such a manner that 1 g glucose in 1 L PBS without Ca^2+ and Mg^2+ was filtered through a 0.22 μm filter. The solutions containing cells was centrifuged at 4° C. for 10 min at 1000 rpm and ice-cold 70% ethanol was added dropwise to pellet. The sample tube was capped, allowed to fix in the ethanol overnight at 4° C., vortexed briefly, and then centrifuged for 5 min at 3000 rpm. Thereafter, ethanol was discarded and PI (propidium iodide) staining solution (0.5 ml 20× propidium iodide stock solution (50 μg/ml final), 1000 kunits RNase A (100 U/ml final) and 10 ml sample buffer) was added into the sample tube. Finally, the sample was analyzed within 24 hr in a […] (FACS Calibur, Beckton-Dikinson).

cellular cAMP = test: measurement of cyclic AMP accumulation (cAMP binding assay); type: cell-based, human; conditions: near-senescent HDF (passage 26); 30 μg/ml LPA; 10 μM inhibitor
Description: FIG. 9 represents LPA-induced alteration of cellular cAMP content in presenescent and near-senescent fibroblasts. Subconfluent presenescent (passage 8, Pa 8) and near-senescent (passage 24, Pa 24) fibroblasts were serum-starved for 2 days and treated with LPA: A, 1-70 μg/ml LPA for 30 min; B, 30 μg/ml LPA for the indicated times. The level of cAMP in the acid extracts was measured by cAMP binding assay. The data represents an average of triplicate experiments.
Subconfluent near-senescent (passage 26, Pa 26) fibroblasts were serum-starved for 2 days and treated with 30 μg/ml LPA for the indicated times in the absence or presence of 10 μM PKC inhibitor bisindolylmaleiamide (bIM). The level of cAMP in the acid extracts was measured by cAMP binding assay. The data represents an average of triplicate experiments.
Cells grown on a 12 well-plate were serum-starved by incubating with SFM for 2 days. After the cells were equilibrated in the fresh SFM medium for 1 hour, they were treated with LPA as described in the figure. The reaction was terminated by removing the medium and by adding 2.5 M perchloric acid. The acid extract was stored at −20° C. until use. The acid extract was neutralized with 4.2 M KOH and the cAMP content was determined by competitive binding with [^3H]cAMP to the cAMP binding protein, RIα of cAMP-dependent protein kinase, as described by Jang and Juhnn (2001). After the extraction, cells were lyzed with 0.1 N NaOH and analyzed for protein content using the Bradford protein assay reagent. The cAMP content was normalized to the amount of acid-insoluble protein.

[3] = tested on: human diploid fibroblasts; test: DNA synthesis, [3H]thymidine incorporation; type: cell-based; conditions: for increase in [3H]thymidine incorporation: 50-100 ng/ml PDGF
Description: FIG. 5 represents reduction of growth factor-induced thymidine incorporation in near-senescent fibroblasts. […] The amount of [^3H]thymidine incorporated into DNA over 4 hrs was measured as described. The data represents an average of 3 counts in cpm. A representative experiment of the three is presented in A. Fold increase over the untreated control was calculated and plotted in B.
FIG. 18 represents changes in LPA-induced thymidine incorporation and cell proliferation in near-senescent fibroblasts versus presenescent fibroblasts. Subconfluent presenescent (passage 8, Pa 8) and near-senescent (passage 24, Pa 24) fibroblasts were serum-starved for 2 days and treated with LPA (1-70 μg/ml) for 16 hrs. The amount of [^3H]thymidine incorporated into DNA over 4 hrs was measured as described. The data represents an average of 3 counts in cpm in each independent experiments. A representative experiment of the three is presented in A. Converted fold increase over the untreated control was calculated and plotted in B.
Quiescent cells were labeled with [^3H]thymidine (0.5 μCi/ml) for 4 hrs and the […] radioactive thymidine was removed by washing with PBS. DNA was precipitated with 10% TCA and lysed in 0.5N NaOH. The radioactivity in neutralized lysates was counted in a liquid scintillation cocktail.

[4] = tested on: human diploid fibroblasts; test: measurement of cytosolic free [Ca2+]i by confocal microscopy (fluo-3-AM); type: cell-based; conditions: PDGF 50 ng/ml, LPA 1 μg/ml
Description: FIG. 1 represents differential changes in growth factor-stimulated calcium release in senescent fibroblasts. Presenescent (passage 7: A and C) and senescent (passage 27: B and D) fibroblasts were grown on coverslips, serum-starved, and incubated with 4 μM fluo-3-AM in serum-free medium for 40 min. The stained cells were treated with […] of platelet-derived growth factor (A and B) or 1 μg/ml of lysophosphatidic acid (C and D) via a micro-perfusion system for the real-time measurement of signaling molecules, and laser scanning confocal microscopy. The scanned images were analyzed for changes in intracellular Ca^2+ at the single cell level and results expressed as relative fluorescence intensity (RFI).
[Ca^2+]i was measured using a laser scanning confocal microscope, as described by Junn et al. (2000). Quiescent fibroblasts grown on glass cover slips in a 6-well plate were stained with 4 μM of fluo-3-acetoxymethyl ester (fluo-3-AM) in phenol red-free medium without serum for 40 min and washed three times with the serum-free medium. Stained cells on each cover slip were mounted on a perfusion chamber (MPS-1000, Seoul Engineering, Korea), placed under the confocal laser scanning microscope (Carl Zeiss LSM 410), and scanned every 5 sec with a 488 nm excitation argon laser and a 515 nm long pass emission filter. Growth factors were added to the cells using an automatic pumping system (self-designed). All scanned images were analyzed for [Ca ^2+]i changes at the single cell level using “Time Series Program” for a real-time measurement of relative fluorescence intensity (RFI) which is installed in the Carl Zeiss LSM 410 confocal system.

phospholipase D (PLD) = test: phosphatidylbutanol formation as an indication of phospholipase D activity; type: cell-based, human; conditions: passage 24 near-senescent cells vs presenescent; 0.5% 1-butanol, 20 min
Description: Subconfluent presenescent (passage 8: Pa 8) and near-senescent (passage 24: Pa 24) cells were serum-starved and labeled with [^3H]myristic acid overnight. […] A representative experiment of three performed in duplicate is presented.
Quiescent cells were labeled overnight with [^3H]myristic acid (1 μCi/ml) and then washed with PBS. Phosphatidylbutanol formation was measured as described by Yeo et al. (1994). Cells were preincubated with 0.5% (v/v) 1-butanol for 15 min and then treated with agonists for 20 min in the presence of 0.5% 1-butanol. Total lipids were extracted and separated by thin layer chromatography. The band of phosphatidylbutanol was scraped off the plates and its radioactivity was counted in a liquid scintillation cocktail.

Phospholipase C (PLC) = conditions: near-senescent cells (passage 23) vs presenescent (passage 6); PDGF 50 ng/ml, LPA 1 μg/ml, 20 min, 20 mM LiCl
[5] = tested on: human diploid fibroblasts; test: confocal microscopic measurement of actin polymerization (NBD-phallacidin); type: cell-based; conditions: PDGF 50 ng/ml, LPA 1 μg/ml
Description: FIG. 2 represents differential changes in growth factor-induced actin polymerization in senescent fibroblasts. […] The cells were fixed, permeabilized, and stained with NBD-phallacidin, then photographed.
F-actin was stained as described by Shin et al. (1999). Quiescent cells grown on glass cover slips in multi-well culture plates were treated with agonists for 30 min, and the cells were fixed with 3.7% paraformaldehyde in PBS for 30 min on ice. Following permeabilization with 0.2% Triton X-100 in PBS for 15 min on ice, the cells were stained with […] NBD-phallacidin in PBS for 30 min at RT. The stained cells were washed three times with PBS for 15 min and the cover slip was mounted on a slide glass with Gelvatol, which was prepared by mixing 100 ml of 23% polyvinyl alcohol in PBS with 50 ml glycerol. The cells were then observed under a confocal fluorescence microscope.

[6] = tested on: human diploid fibroblasts; test: growth factor-stimulated signaling events in human diploid fibroblasts; type: cell-based
Description: Foreskin fibroblasts were isolated as described by Boyce and Ham (1983). Cells were cultured in Dulbecco's modified Eagle's medium containing 10% fetal bovine serum and antibiotics. The primary culture contained smaller and more closely packed cells during the early stage of the culture. Cells with less than 10 passage were often considered as presenescent cells. As the cells were passaged, they became larger and they have a slower growth rate at passage 10-20. Cells from over 27 passages were completely growth-arrested and developed characteristic appearance designated previously as replicative senescence (Yeo et al., 2000a and b). In order to confirm that cells were senescent, we either examined the activity of beta-galactosidase or stained with X-gal, a membrane permeable substrate of the enzyme, which produces a blue insoluble product inside of the cells. The number of cells stained with X-gal increased with age and most of cells from passage 27-28 were stained. Cultures of over 23-28 passages have also shown the cessation of cell growth and senescence-like morphological changes, but only 70-80% of cells were stained with X-gal. These were termed “near-senescent”. Although the near-senescent cultures were not completely homogeneous, we compared the changes in these cultures to those in presenescent cultures of passage 6-10. In order to determine the growth factor-stimulated signaling events, cells were grown for 1-2 days to 60-70% sub-confluency in the culture medium, and then serum-starved to become quiescent by incubating with serum free medium (SFM) for 2 days. The quiescent cells were treated with various agonists, as described in the figure legends. To label cells, radioactive chemicals were added during the incubation with SFM.
Primary human diploid fibroblasts, isolated from newborn foreskins, were used to study the mechanism of reduced response to growth factor stimulation with aging. These cells were maintained and passaged as described previously (Yeo et al., 2000a). […] Compared to their presenescent counterparts, the senescent and near-senescent cells were larger and grew to lower density, as has been observed in other cell systems. Here the present inventors report upon the differential changes in the signaling events evoked by platelet-derived growth factor (PDGF) and lysophosphatidic acid (LPA). PDGF elicits signaling events over a concentration range of 10-100 ng/ml, whereas LPA stimulates the hydrolysis of phospholipids, Ca^2+ mobilization, and actin polymerization over a concentration range of 0.1-10 μg/ml in human diploid fibroblasts. In order to compare their cellular responses, we treated presenescent and senescent (or near-senescent) cells with PDGF and LPA at a maximally responsive dose of 50 ng/ml and 1 μg/ml, respectively.

[7] = near-senescent cells (passage 24)

Nc1ncnc2c1ncn2C1CCCO1 (stereo not shown) [adenylyl cyclase inhibitor]
viable cell number (HDF [1]): dramatically increased | number of cells in S phase (HDF [2]; adenylyl cyclase inhibitor alone): dramatically increased | number of cells in S phase (HDF [2]; co-treatment of adenylyl cyclase inhibitor with LPA): more enhanced

bisindolylmaleiamide [bis-indolylmaleiamide]
cAMP content in LPA-stimulated cells in presence of PKC inhibitor (cellular cAMP): inhibition of cAMP accumulation

PDGF
agonist-induced DNA synthesis ([3H]thymidine incorporation) in near-senescent cells vs presenescent [3, 7]: greatly reduced | increase in [3H]thymidine incorporation [3, 7]: 1.3 fold | increase in [3H]thymidine incorporation ([3]; presenescent cells (passage 8)): 7-8 fold | concentration range of very strong agonism for [3H]thymidine incorporation ([3]; presenescent fibroblasts): 10 to 100 ng/mL | cytosolic Ca2+ levels ([4]; presenescent fibroblasts (passage 7)): rapid increase | Ca2+ response in senescent cells relative to presenescent ([4]; senescent cells (passage 27)): greatly attenuated | reduction of PLD activity (phospholipase D (PLD)): 80% | agonist-stimulated inositol phosphates (IPs) production (Phospholipase C (PLC)): dramatically reduced | actin polymerization (stress fibers) ([5]; presenescent fibroblasts (passage 10)): enhanced the formation of stress fibers | agonist-induced actin polymerization in senescent cells ([5]; senescent cells (passage 27)): almost completely blocked | concentration range over which signaling events are elicited ([6]; human diploid fibroblasts): 10 to 100 ng/mL | maximally responsive dose ([6]; presenescent and senescent (or near-senescent) cells): 50 ng/mL
